# Source: ChEMBL document CHEMBL3421553, “Design, synthesis, and biological evaluation of benzoselenazole-stilbene hybrids as multi-target-directed anti-cancer agents” (Eur J Med Chem, 2015)
# Assays:
# [1] = Inhibition of rat liver TrxR assessed as increase in absorbance by DTNB assay
# [2] = tested on: Bel-7402; experiment: Induction of apoptosis in human Bel7402 cells assessed as necrotic cells at 5 uM after 48 hrs by flow cytometry (reference value: 0.19%); format: functional
# [3] = Cell cycle arrest in human Bel7402 cells assessed as cells accumulation at G2/M phase at 1 uM after 48 hrs by flow cytometry (reference value: 16.61%); format: functional, cell-based; details: Bel-7402
# [4] = tested on: Bel-7402; experiment: Induction of apoptosis in human Bel7402 cells assessed as apoptotic cells at 3 uM after 48 hrs by flow cytometry (reference value: 0.73%); format: functional
# [5] = tested on: Bel-7402; experiment: Induction of apoptosis in human Bel7402 cells assessed as live cells at 1 uM after 48 hrs by flow cytometry (reference value: 98.65%); format: functional
# [6] = Cell cycle arrest in human Bel7402 cells assessed as cells accumulation at G1 phase at 0.5 uM after 48 hrs by flow cytometry (reference value: 62.60%); format: functional, cell-based; details: Bel-7402
# [7] = Cell cycle arrest in human Bel7402 cells assessed as cells accumulation at S phase at 1 uM after 48 hrs by flow cytometry (reference value: 13.99%); format: functional, cell-based; details: Bel-7402
# [8] = tested on: Bel-7402; experiment: Induction of apoptosis in human Bel7402 cells assessed as detection error cells at 1 uM after 48 hrs by flow cytometry (reference value: 0.43%); format: functional
# [9] = Cell cycle arrest in human Bel7402 cells assessed as cells accumulation at Sub-G1 phase at 3 uM after 48 hrs by flow cytometry (reference value: 1.47%); format: functional, cell-based; details: Bel-7402
# [10] = Antiproliferative activity against human Bel7402 cells assessed as cell viability after 48 hrs by MTT assay; format: functional, cell-based; details: Bel-7402, 48 h
# [11] = tested on: MCF7; experiment: Antiproliferative activity against human MCF7 cells assessed as cell viability after 48 hrs by MTT assay; format: functional, cell-based; details: MCF7, 48 h
# [12] = tested on: Bel-7402; experiment: Induction of apoptosis in human Bel7402 cells assessed as detection error cells at 5 uM after 48 hrs by flow cytometry (reference value: 0.43%); format: functional
# [13] = tested on: Bel-7402; experiment: Induction of apoptosis in human Bel7402 cells assessed as live cells at 0.5 uM after 48 hrs by flow cytometry (reference value: 98.65%); format: functional
# [14] = tested on: Bel-7402; experiment: Induction of apoptosis in human Bel7402 cells assessed as detection error cells at 0.5 uM after 48 hrs by flow cytometry (reference value: 0.43%); format: functional
# [15] = Cell cycle arrest in human Bel7402 cells assessed as cells accumulation at G1 phase at 3 uM after 48 hrs by flow cytometry (reference value: 62.60%); format: functional, cell-based; details: Bel-7402
# [16] = tested on: A549; experiment: Antiproliferative activity against human A549 cells assessed as cell viability after 48 hrs by MTT assay; format: functional, cell-based; details: A549, 48 h
# [17] = Cell cycle arrest in human Bel7402 cells assessed as cells accumulation at Sub-G1 phase at 1 uM after 48 hrs by flow cytometry (reference value: 1.47%); format: functional, cell-based; details: Bel-7402
# [18] = tested on: Bel-7402; experiment: Induction of apoptosis in human Bel7402 cells assessed as necrotic cells at 3 uM after 48 hrs by flow cytometry (reference value: 0.19%); format: functional
# [19] = tested on: Bel-7402; experiment: Induction of apoptosis in human Bel7402 cells assessed as apoptotic cells at 5 uM after 48 hrs by flow cytometry (reference value: 0.73%); format: functional
# [20] = Cell cycle arrest in human Bel7402 cells assessed as cells accumulation at Sub-G1 phase at 5 uM after 48 hrs by flow cytometry (reference value: 1.47%); format: functional, cell-based; details: Bel-7402
# [21] = tested on: Bel-7402; experiment: Induction of apoptosis in human Bel7402 cells assessed as detection error cells at 3 uM after 48 hrs by flow cytometry (reference value: 0.43%); format: functional
# [22] = tested on: Bel-7402; experiment: Induction of apoptosis in human Bel7402 cells assessed as apoptotic cells at 1 uM after 48 hrs by flow cytometry (reference value: 0.73%); format: functional
# [23] = tested on: Bel-7402; experiment: Induction of apoptosis in human Bel7402 cells assessed as necrotic cells at 1 uM after 48 hrs by flow cytometry (reference value: 0.19%); format: functional
# [24] = tested on: HeLa; experiment: Antiproliferative activity against human HeLa cells assessed as cell viability after 48 hrs by MTT assay; format: functional, cell-based
# [25] = tested on: Bel-7402; experiment: Induction of apoptosis in human Bel7402 cells assessed as live cells at 5 uM after 48 hrs by flow cytometry (reference value: 98.65%); format: functional
# [26] = tested on: Bel-7402; experiment: Induction of apoptosis in human Bel7402 cells assessed as live cells at 3 uM after 48 hrs by flow cytometry (reference value: 98.65%); format: functional
# [27] = Cell cycle arrest in human Bel7402 cells assessed as cells accumulation at Sub-G1 phase at 0.5 uM after 48 hrs by flow cytometry (reference value: 1.47%); format: functional, cell-based; details: Bel-7402
# [28] = tested on: Bel-7402; experiment: Induction of apoptosis in human Bel7402 cells assessed as necrotic cells at 0.5 uM after 48 hrs by flow cytometry (reference value: 0.19%); format: functional
# [29] = Cell cycle arrest in human Bel7402 cells assessed as cells accumulation at S phase at 5 uM after 48 hrs by flow cytometry (reference value: 13.99%); format: functional, cell-based; details: Bel-7402
# [30] = Cell cycle arrest in human Bel7402 cells assessed as cells accumulation at S phase at 0.5 uM after 48 hrs by flow cytometry (reference value: 13.99%); format: functional, cell-based; details: Bel-7402
# [31] = Cell cycle arrest in human Bel7402 cells assessed as cells accumulation at S phase at 3 uM after 48 hrs by flow cytometry (reference value: 13.99%); format: functional, cell-based; details: Bel-7402
# [32] = Cell cycle arrest in human Bel7402 cells assessed as cells accumulation at G2/M phase at 0.5 uM after 48 hrs by flow cytometry (reference value: 16.61%); format: functional, cell-based; details: Bel-7402
# [33] = tested on: Bel-7402; experiment: Induction of apoptosis in human Bel7402 cells assessed as apoptotic cells at 0.5 uM after 48 hrs by flow cytometry (reference value: 0.73%); format: functional
# [34] = Cell cycle arrest in human Bel7402 cells assessed as cells accumulation at G1 phase at 5 uM after 48 hrs by flow cytometry (reference value: 62.60%); format: functional, cell-based; details: Bel-7402
# [35] = Cell cycle arrest in human Bel7402 cells assessed as cells accumulation at G2/M phase at 5 uM after 48 hrs by flow cytometry (reference value: 16.61%); format: functional, cell-based; details: Bel-7402
# [36] = Aqueous solubility of the compound in phosphate buffer at pH 7.4; format: physicochemical
# [37] = Cell cycle arrest in human Bel7402 cells assessed as cells accumulation at G2/M phase at 3 uM after 48 hrs by flow cytometry (reference value: 16.61%); format: functional, cell-based; details: Bel-7402
# [38] = Cell cycle arrest in human Bel7402 cells assessed as cells accumulation at G1 phase at 1 uM after 48 hrs by flow cytometry (reference value: 62.60%); format: functional, cell-based; details: Bel-7402
compound,measurement,setting,value
COc1ccc(/C=C/c2ccc(-n3[se]c4ccccc4c3=O)cc2)cc1OC,IC50,[1],3.1 µM
same,Activity,[2],5.26%
same,Activity,[3],33.8%
same,Activity,[4],36.71%
same,Activity,[5],79.95%
same,Activity,[6],55.8%
same,Activity,[7],6.93%
same,Activity,[8],3.45%
same,Activity,[9],5.47%
same,IC50,[10],1.01 µM
same,IC50,[11],3.37 µM
same,Activity,[12],2.95%
same,Activity,[13],89.75%
same,Activity,[14],2.22%
same,Activity,[15],40.4%
same,IC50,[16],1.53 µM
same,Activity,[17],5.15%
same,Activity,[18],5.49%
same,Activity,[19],53.63%
same,Activity,[20],6.69%
same,Activity,[21],2.39%
same,Activity,[22],13.55%
same,Activity,[23],3.04%
same,IC50,[24],1.52 µM
same,Activity,[25],38.16%
same,Activity,[26],55.41%
same,Activity,[27],0.2%
same,Activity,[28],1.29%
same,Activity,[29],8.32%
same,Activity,[30],14%
same,Activity,[31],9.57%
same,Activity,[32],22.2%
same,Activity,[33],6.73%
same,Activity,[34],37%
same,Activity,[35],44.2%
same,solubility,[36],> 100 µM
same,Activity,[37],42%
same,Activity,[38],49%
